ChEMBL document CHEMBL1201862, “PubChem BioAssay data set” (2004)
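Exposure lasted 48 hours, with cells grown in 96-well plates and compounds tested at five concentrations. GI50: concentration for 50% inhibition of growth.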 The source made the active and inactive calls. Rule as the data show it: active = GI50 up to about 1.1 µM and inactive = higher.

Key:
Assay in all cases: DTP human tumour cell line panel, 48 h
[1] = system: 786-0
[2] = system: A498
[3] = system: A549
[4] = system: EKVX
[5] = system: HOP-62
[6] = system: Hs-578T
[7] = system: IGROV-1
[8] = system: M14
[9] = system: MDA-N
[10] = system: NCI-H226
[11] = system: NCI/ADR-RES
[12] = system: OVCAR-8
[13] = system: SF-295
[14] = system: SK-MEL-28
[15] = system: SNB-19
[16] = system: T47D
[17] = system: UACC-257
[18] = system: UACC-62
[19] = system: UO-31
[20] = system: DLD-1

| SMILES | GI50 [1] | GI50 [2] | GI50 [3] | GI50 [4] | GI50 [5] | GI50 [6] | GI50 [7] | GI50 [8] | GI50 [9] | GI50 [10] | GI50 [11] | GI50 [12] | GI50 [13] | GI50 [14] | GI50 [15] | GI50 [16] | GI50 [17] | GI50 [18] | GI50 [19] | GI50 [20] |
| --- | --- | --- | --- | --- | --- | --- | --- | --- | --- | --- | --- | --- | --- | --- | --- | --- | --- | --- | --- | --- |
| O=C(Cn1c(-c2ccccc2)cc2ccccc21)N1CCOCC1 | 41.4 µM (inactive) | > 100 µM (inactive) | > 100 µM (inactive) | > 100 µM (inactive) | 32.7 µM (inactive) | > 100 µM (inactive) | > 100 µM (inactive) | > 100 µM (inactive) | > 100 µM (inactive) | > 100 µM (inactive) | > 100 µM (inactive) | > 100 µM (inactive) | > 100 µM (inactive) | > 100 µM (inactive) | 79.3 µM (inactive) | > 100 µM (inactive) | > 100 µM (inactive) | > 100 µM (inactive) | > 100 µM (inactive) | – |
| O=S(=O)(O)c1cc(S(=O)(=O)O)c2c(/N=N/c3ccc(/N=N/c4ccccc4)cc3)c(O)ccc2c1 | > 100 µM (inactive) | 52.1 µM (inactive) | > 100 µM (inactive) | > 100 µM (inactive) | > 100 µM (inactive) | > 100 µM (inactive) | > 100 µM (inactive) | > 100 µM (inactive) | > 100 µM (inactive) | > 100 µM (inactive) | > 100 µM (inactive) | > 100 µM (inactive) | > 100 µM (inactive) | > 100 µM (inactive) | > 100 µM (inactive) | > 100 µM (inactive) | > 100 µM (inactive) | > 100 µM (inactive) | > 100 µM (inactive) | – |
| NC1CC(=O)c2c(Cl)sc(Cl)c21 (stereo not given) | 1.41 µM (inactive) | 15.3 µM (inactive) | 12.7 µM (inactive) | 2 µM (inactive) | 10.7 µM (inactive) | 19.2 µM (inactive) | 4.12 µM (inactive) | 3.85 µM (inactive) | 4.56 µM (inactive) | 14.4 µM (inactive) | 15 µM (inactive) | 5.46 µM (inactive) | 14 µM (inactive) | 1.73 µM (inactive) | 13.2 µM (inactive) | 1.74 µM (inactive) | 3.16 µM (inactive) | 2.64 µM (inactive) | 9.86 µM (inactive) | – |
| COC(=O)N/N=C(\c1nc2ccc(Cl)cc2nc1O)C(O)c1ccc([N+](=O)[O-])cc1 (stereo not given) | > 100 µM (inactive) | – | > 100 µM (inactive) | – | > 100 µM (inactive) | – | > 100 µM (inactive) | > 100 µM (inactive) | – | > 100 µM (inactive) | – | > 100 µM (inactive) | > 100 µM (inactive) | > 100 µM (inactive) | > 100 µM (inactive) | – | > 100 µM (inactive) | > 100 µM (inactive) | > 100 µM (inactive) | > 100 µM (inactive) |
| O=c1c2cc(Br)ccc2oc2nc3n(c(=O)c12)CCCS3 | > 100 µM (inactive) | > 100 µM (inactive) | > 100 µM (inactive) | > 100 µM (inactive) | > 100 µM (inactive) | > 100 µM (inactive) | > 100 µM (inactive) | > 100 µM (inactive) | > 100 µM (inactive) | > 100 µM (inactive) | > 100 µM (inactive) | > 100 µM (inactive) | > 100 µM (inactive) | > 100 µM (inactive) | > 100 µM (inactive) | 30.1 µM (inactive) | > 100 µM (inactive) | > 100 µM (inactive) | 39.2 µM (inactive) | – |
| Cn1cc(C(=O)C2CCCCC2)ccc1=O | > 100 µM (inactive) | – | > 100 µM (inactive) | > 100 µM (inactive) | > 100 µM (inactive) | – | > 100 µM (inactive) | > 100 µM (inactive) | – | > 100 µM (inactive) | – | > 100 µM (inactive) | > 100 µM (inactive) | > 100 µM (inactive) | > 100 µM (inactive) | – | – | > 100 µM (inactive) | > 100 µM (inactive) | > 100 µM (inactive) |
| COC(=O)/C(C=O)=C/Sc1ccccc1 | 15.2 µM (inactive) | – | 11.3 µM (inactive) | 29 µM (inactive) | 45.4 µM (inactive) | – | 13.9 µM (inactive) | 16.6 µM (inactive) | – | 15.8 µM (inactive) | – | 15.6 µM (inactive) | 30.1 µM (inactive) | 19.4 µM (inactive) | 54.5 µM (inactive) | – | 29.8 µM (inactive) | 22.2 µM (inactive) | 10.5 µM (inactive) | 21.4 µM (inactive) |
| O=C1c2cccc([N+](=O)[O-])c2C(=O)N1Cc1ccccc1 | > 100 µM (inactive) | > 100 µM (inactive) | > 100 µM (inactive) | > 100 µM (inactive) | > 100 µM (inactive) | > 100 µM (inactive) | > 100 µM (inactive) | > 100 µM (inactive) | > 100 µM (inactive) | > 100 µM (inactive) | > 100 µM (inactive) | > 100 µM (inactive) | > 100 µM (inactive) | > 100 µM (inactive) | > 100 µM (inactive) | > 100 µM (inactive) | > 100 µM (inactive) | > 100 µM (inactive) | > 100 µM (inactive) | – |
| O=S1(=O)OCCOS(=O)(=O)C1(Br)Br | > 100 µM (inactive) | – | > 100 µM (inactive) | > 100 µM (inactive) | > 100 µM (inactive) | – | – | > 100 µM (inactive) | – | 0.375 µM (active) | – | > 100 µM (inactive) | > 100 µM (inactive) | > 100 µM (inactive) | 80.7 µM (inactive) | – | > 100 µM (inactive) | > 100 µM (inactive) | 62.7 µM (inactive) | > 100 µM (inactive) |
| FC(F)(F)C1(Br)C(c2ccccc2)=C1c1ccccc1 | 15.9 µM (inactive) | – | 17.7 µM (inactive) | 32.2 µM (inactive) | 18.5 µM (inactive) | – | 24.7 µM (inactive) | 17.1 µM (inactive) | – | 17.7 µM (inactive) | – | 15 µM (inactive) | 13 µM (inactive) | 18.9 µM (inactive) | 22.3 µM (inactive) | – | 18.5 µM (inactive) | 15.8 µM (inactive) | 18 µM (inactive) | 14.7 µM (inactive) |
| CCNCC(O)c1ccc(N)c([N+](=O)[O-])c1 (stereo not given) | > 100 µM (inactive) | > 100 µM (inactive) | > 100 µM (inactive) | > 100 µM (inactive) | > 100 µM (inactive) | > 100 µM (inactive) | > 100 µM (inactive) | > 100 µM (inactive) | > 100 µM (inactive) | > 100 µM (inactive) | > 100 µM (inactive) | > 100 µM (inactive) | > 100 µM (inactive) | > 100 µM (inactive) | > 100 µM (inactive) | > 100 µM (inactive) | > 100 µM (inactive) | > 100 µM (inactive) | > 100 µM (inactive) | – |
| N=C(N)NCC1CCCCCCN1 (stereo not given) | > 100 µM (inactive) | > 100 µM (inactive) | > 100 µM (inactive) | > 100 µM (inactive) | > 100 µM (inactive) | > 100 µM (inactive) | > 100 µM (inactive) | > 100 µM (inactive) | > 100 µM (inactive) | > 100 µM (inactive) | > 100 µM (inactive) | > 100 µM (inactive) | > 100 µM (inactive) | > 100 µM (inactive) | > 100 µM (inactive) | > 100 µM (inactive) | > 100 µM (inactive) | > 100 µM (inactive) | > 100 µM (inactive) | – |
| N#Cc1c(N)c(C(=O)O)nn(-c2cccc(C(F)(F)F)c2)c1=O | > 100 µM (inactive) | 41 µM (inactive) | > 100 µM (inactive) | 33.6 µM (inactive) | – | – | > 100 µM (inactive) | > 100 µM (inactive) | – | – | – | > 100 µM (inactive) | > 100 µM (inactive) | > 100 µM (inactive) | > 100 µM (inactive) | – | – | 76.9 µM (inactive) | 76.7 µM (inactive) | 70.3 µM (inactive) |
| CN(C)c1cccc(NC2=NCCO2)c1 | 46.6 µM (inactive) | 74.5 µM (inactive) | > 100 µM (inactive) | 78.5 µM (inactive) | 81.1 µM (inactive) | 43.6 µM (inactive) | > 100 µM (inactive) | 37.5 µM (inactive) | 17.5 µM (inactive) | 47.2 µM (inactive) | 39.7 µM (inactive) | 66.8 µM (inactive) | > 100 µM (inactive) | 42.8 µM (inactive) | 52.8 µM (inactive) | 69.2 µM (inactive) | 48.9 µM (inactive) | 50.7 µM (inactive) | > 100 µM (inactive) | – |
| O=S(=O)(O)c1ccc(/N=N/c2c(O)ccc3ccccc23)cc1 | > 100 µM (inactive) | > 100 µM (inactive) | > 100 µM (inactive) | > 100 µM (inactive) | > 100 µM (inactive) | > 100 µM (inactive) | > 100 µM (inactive) | > 100 µM (inactive) | > 100 µM (inactive) | 98.2 µM (inactive) | > 100 µM (inactive) | > 100 µM (inactive) | > 100 µM (inactive) | > 100 µM (inactive) | > 100 µM (inactive) | > 100 µM (inactive) | > 100 µM (inactive) | > 100 µM (inactive) | > 100 µM (inactive) | – |
| CCc1nc(N)nc(N)c1-c1ccc(Cl)c(/N=N/N(C)C)c1 | 35 µM (inactive) | 52 µM (inactive) | 17.2 µM (inactive) | 32.7 µM (inactive) | 23.2 µM (inactive) | 30.3 µM (inactive) | 24.1 µM (inactive) | 22.5 µM (inactive) | 36 µM (inactive) | 59.6 µM (inactive) | 23.8 µM (inactive) | 40.5 µM (inactive) | 26.5 µM (inactive) | 29.1 µM (inactive) | 44.4 µM (inactive) | 39.7 µM (inactive) | 29.4 µM (inactive) | 24.9 µM (inactive) | 18.4 µM (inactive) | – |
